Assay results taken from patent EP0340198B1, “Immunoassay for the detection of alpha-haloacetamides” (priority 1988, dated 1989).

How the values were obtained:
alachlor antibodies = assay: inhibition ELISA for alachlor (cross-reactivity studies); type: binding, rabbit; conditions: for reaction (cross-reactivity) with the antibodies, in words: relative to alachlor
Procedure: Immunoassays. A known "checkerboard assay" was initially conducted with each serum sample after the first boost to detect the production of antibodies against alachlor. […] The next 7 rows received the subsequent dilutions of the screening antigen. The plate was covered with Parafilm and stored overnight at 4°C. The next morning, the unbound screening antigen was removed from the wells by washing three times with phosphate buffered saline solution (0.01 M phosphate buffer of pH 7.4, 0.15 M NaCl; PBS). The remaining active sites in the wells were blocked with PBS-8% non-fat dry milk solution, (NFDM, 0.3 mL) for 1 hr at 22°C. Serum, which had been stored at -20°C, was freshly thawed and serially diluted (one to two) from 1,000 to 64,000-fold using PBS-T (PBS containing 0.02% Tween 20). Starting with the most concentrated solution, 0.1 mL of the serum solution was pipetted into all 8 wells of column 1; the remaining columns received the subsequent dilutions of the serum solution. The plate was covered and incubated at 22°C for 1.5 hrs. Following triplicate washes of the wells with PBS-T, each of the wells received 0.1 mL of goat anti-rabbit gamma-globulin conjugated to horseradish peroxidase (GAR-HRP) freshly thawed and diluted 4,000 fold with PBS-1% NFDM. After a final wash cycle (4 times) with PBS-T, freshly prepared O-phenylene diamine (PDA) substrate solution (0.2 mL, 0.04 mg/mL PDA and 0.01% H₂O₂ in 0.05 M citric acid and 0.15 M sodium dibasic phosphate, pH 5.0) was dispensed into each of the wells and incubated in the dark at 22°C for 30-60 min. Sulfuric acid (4 N, 50 µL) was added to each of the wells to stop the reaction, and the final absorbances of the wells (490 nm) were recorded.
The inhibition ELISA required one additional step in the assay procedure described above. Equal volumes of the diluted serum and aqueous alachlor standard or unknown sample were mixed and preincubated at 22°C for 1 hr. This mixture (0.1 mL/well) was then analyzed in 6 replicate wells on the plate. The presence of free alachlor inhibited the binding of the antibody to the alachlor-BSA conjugate, resulting in an inhibition of the development of absorbance at 490 nm. The amount of free alachlor was indirectly proportional to the intensity of color developed. Levels of alachlor in unknown water samples were calculated based on the alachlor standards on the same plate. Alachlor standards (0, 0.2, 0.5, 1.0, 3.0, 5.0, and 8.0 ppb in deionized water) were stored at -20°C in 1-mL portions, and were freshly thawed for each assay.
Data Calculations. The lay-out of a typical 96-well microtiter plate is 8 rows of 12 columns in an inhibition ELISA assay for alachlor. The first 6 wells in the first column of wells were not coated with the screening antigen and served as the background wells. The first 6 wells in the remaining 7 columns of wells were reserved for the seven alachlor standards (0 to 8 ppb) listed above. The remaining wells in all 8 rows were used for the samples. The uncorrected absorbances of the wells determined by the Bio-tek reader were used in the following calculations. The median was calculated for the 6 replicate background wells and was then subtracted from the medians of the standards and samples. All the median values were divided by the median of the standard without alachlor (0 ppb) to generate percentages of absorbances. The percent absorbance of the alachlor standards was then plotted on the Y axis against the logarithm (base 10) of the actual concentrations of alachlor on the X axis. A hyperbolic curve was drawn through the standards, and the resulting standard curve was used to calculate the concentrations of alachlor in the unknown samples.
The calculations described above were usually carried out using a computer program.

[1] = test system: antibodies isolated from the serum of the first bleed of the rabbit; assay: affinity column binding of 14C-labeled analytes from aqueous solution; conditions: 14C-labeled analogs, test of non-specific binding
Procedure: Affinity Chromatography. The preparation of affinity columns using rabbit antisera was as follows: The rabbit IgG's were purified by passing 5 mL of the antiserum through a column containing 5 mL of the swelled protein A-agarose gel. By monitoring the absorbance at 280 nm in the column effluent, the non-bound proteins were removed by washing with PBS, and the IgG's were then eluted with acetic acid at pH 2.3 (0.58% acetic acid and 0.15 M NaCl). The fractions containing the IgG's were combined and neutralized; based on the UV absorbance at 280 nm (absorbance/1.4 = mg/mL protein), approximately 33 mg of IgG were isolated from 5 mL of serum, which was then lyophilized and stored at -20°C. The reusable protein A-agarose column was stored in PBS containing 0.02% sodium azide at 4°C.
The protein A-purified IgG was immobilized onto Affigel-10 affinity support. Affigel-10 (5 mL) was washed 3 times with isopropyl alcohol and 3 times with cold distilled water in a Buchner funnel. The gel was then added to a solution of IgG (3 mL in 0.1 M HEPES buffer, pH 7.5) at 4°C. Following 4 hrs of stirring, the gel was precipitated by gentle centrifugation and washed with HEPES buffer (3 x 3 mL). The remaining active sites on the gel were blocked by resuspending the gel in water (2 mL) and adding ethanolamine HCl (0.5 mL, 1M), and stirring the mixture at 22°C for 1 hr. The affinity column was useful in adsorbing alachlor and other analytes from aqueous solutions. After binding the alachlor, the column was washed with water (2 mL/min) to remove unbound material and alachlor was eluted with 75% aqueous methanol.
Using the antibodies isolated from the serum of the first bleed of the rabbit, an affinity column for alachlor was constructed to study its utility as an isolation and purification tool. The IgG's in the serum of the rabbit immunized with the alachlor-IgG conjugate were purified with a protein A-agarose column. The purified IgG was then immobilized onto the Affigel-10 support. Alachlor (¹⁴C-labeled) in aqueous solution was passed through the column with a flow rate of 2 mL/min; the column was washed with water and eluted with 75% aqueous methanol. The radioactivity in the wash and eluent were determined by liquid scintillation counting. […] The capacity of the column was less than 1 µg, and once this level was exceeded, alachlor no longer bound to the column. The recovery of applied radioactivity generally ranged from 80% to 100%. In a second experiment, alachlor (0.5 µg) was dissolved into increasing volumes of water ranging from 1 mL to 100 mL.
To eliminate the possibility of non-specific binding of alachlor to the affinity column, other ¹⁴C-labeled analogs were also studied. These included acetanilide herbicides butachlor, acetochlor, metolachlor, and propachlor and the previously mentioned alachlor metabolites mercapturate and its methyl ester. The affinity column bound butachlor and acetochlor, but not metolachlor, propachlor, or mercapturate.

[2] = test system: antibodies toward butachlor; assay: inhibition ELISA for butachlor; type: binding, rabbits; conditions: for inhibition of the ELISA assay for butachlor: standard solutions at 10 and 50 ppb in DI water
Text: (§1) The generation of antibodies toward butachlor (2-chloro-2′,6′-diethyl-N-(butoxymethyl)acetanilide), amidochlor (2-chloro-2′,6′-diethyl-N-acetamidomethyl acetanilide), and metolachlor (2-chloro-2′-ethyl-6′-methyl-N-(2-methoxy-1-methylethyl)acetanilide) were accomplished following identical procedures as those described for alachlor. The individual 14C-labeled chloroacetanilide was covalently bound to HSA (human serum albumin) with AHT, and to sheep IgG with AMSA.
(§2) The hapten-IgG conjugates were used to immunize rabbits. The corresponding hapten-BSA conjugates were then utilized in checkerboard assays to determine the presence of desired antibodies in the antisera. An inhibition ELISA for butachlor was set up with antiserum, butachlor-HSA screening antigen, and butachlor. Similar assays were also set up for amidochlor and metolachlor.
(§3) The sensitivity of the inhibition ELISA for butachlor, amidochlor, and metolachlor was tested with respective standards prepared in DI water. Using the best antiserum, the butachlor ELISA produced an IC50 of 8 ppb.
(§4) The specificity of the ELISA for butachlor, amidochlor, and metolachlor were tested using standard solutions of alachlor, acetochlor, butachlor, amidochlor, metolachlor, and propachlor at concentrations of 10 and 50 ppb in DI water. At these concentrations, the ELISA assay for butachlor, amidochlor, and metolachlor was each inhibited only by the respective free hapten, and not by any of the other chloroacetanilides.

[3] = test system: antibodies toward amidochlor; assay: inhibition ELISA for amidochlor; type: binding, rabbits; conditions: for inhibition of the ELISA assay for amidochlor: standard solutions at 10 and 50 ppb in DI water
Text: as §1, §2, §3, §4

[4] = test system: antibodies toward metolachlor; assay: inhibition ELISA for metolachlor; type: binding, rabbits; conditions: for inhibition of the ELISA assay for metolachlor: standard solutions at 10 and 50 ppb in DI water
Text: as §1, §2, §3, §4

[5] = IC50 of alachlor divided by IC50 of analog x 100, bleed not stated

## CCc1cccc(CC)c1NC(=O)CCl [α-chloro-2′,6′-diethylacetanilide]
Alachlor antibodies
  reaction (cross-reactivity) with the antibodies, in words: no reaction

## CCc1cccc(CC)c1N(COC)C(=O)CS(=O)(=O)O [sulfonic acid]
Alachlor antibodies; [5]
  percent cross-reactivity: less than 2.5%
Alachlor antibodies
  reaction (cross-reactivity) with the antibodies, in words: little reaction

## oxanilic acid
Alachlor antibodies; [5]
  percent cross-reactivity: less than 2.5%
Alachlor antibodies
  reaction (cross-reactivity) with the antibodies, in words: little reaction

## CCc1cccc(CC)c1N(COC)C(=O)CS(C)(=O)=O [sulfone analog]
Alachlor antibodies; [5]
  percent cross-reactivity: 9%

## CCc1cccc(CC)c1N(COC)C(=O)CSCC(NC(C)=O)C(=O)OC (stereo not shown) [methyl ester of the mercapturate]
[1]
  binding by the affinity column: Binding was observed
Alachlor antibodies; [5]
  percent cross-reactivity: 89.7%

## CCCCOCN(C(=O)CCl)c1c(CC)cccc1CC [butachlor, 2-chloro-2′,6′-diethyl-N-(butoxymethyl)acetanilide]
[2]; best antiserum, butachlor-HSA screening antigen, standards in DI water
  IC50: 8 ppb
[2]
  inhibition of the ELISA assay for butachlor: inhibited
[3]
  inhibition of the ELISA assay for amidochlor: not
[4]
  inhibition of the ELISA assay for metolachlor: not
[1]
  binding by the affinity column: bound
Alachlor antibodies
  reaction (cross-reactivity) with the antibodies, in words: little to no interaction

## CCc1cccc(CC)c1N(COC)C(=O)CSCC(NC(=O)CCC(N)C(=O)O)C(=O)NCC(=O)O (stereo not shown) [glutathione conjugate of alachlor]
Alachlor antibodies; [5]
  percent cross-reactivity: 27.5%

## CCc1cccc(CC)c1N(COC)C(C)=O [norchloro-alachlor]
Alachlor antibodies; [5]
  percent cross-reactivity: 22%

## CCc1cccc(CC)c1N(COC)C(=O)C[S+]([O-])CC(NC(C)=O)C(=O)O (stereo not shown) [S=O derivative]
Alachlor antibodies
  reaction (cross-reactivity) with the antibodies, in words: significantly reduced or eliminated

## CCc1cccc(C)c1N(C(=O)CCl)C(C)COC (stereo not shown) [metolachlor, 2-chloro-2′-ethyl-6′-methyl-N-(2-methoxy-1-methylethyl)acetanilide]
[2]
  inhibition of the ELISA assay for butachlor: not
[3]
  inhibition of the ELISA assay for amidochlor: not
[4]; best antiserum, standards in DI water
  IC50: 8 ppb
[4]
  inhibition of the ELISA assay for metolachlor: inhibited
[1]
  binding by the affinity column: not
Alachlor antibodies
  reaction (cross-reactivity) with the antibodies, in words: little to no interaction

## CCc1cccc(CC)c1N(COC)C(=O)C[S+](C)[O-] (stereo not shown) [sulfoxide analog]
Alachlor antibodies; [5]
  percent cross-reactivity: 15%

## CCc1cccc(CC)c1N(CNC(C)=O)C(=O)CCl [amidochlor, 2-chloro-2′,6′-diethyl-N-acetamidomethyl acetanilide]
[2]
  inhibition of the ELISA assay for butachlor: not
[3]; amidochlor-HSA as the screening antigen, standards in DI water
  IC50: 2 ppb
[3]; butachlor-HSA substituted for amidochlor-HSA as the screening antigen
  IC50: 0.2 ppb
[3]
  inhibition of the ELISA assay for amidochlor: inhibited
[4]
  inhibition of the ELISA assay for metolachlor: not
Alachlor antibodies
  reaction (cross-reactivity) with the antibodies, in words: little to no interaction

## CCc1cccc(CC)c1N(COC)C(=O)CSCC(NC(C)=O)C(=O)O (stereo not shown) [mercapturate analog]
[1]
  binding by the affinity column: not
Alachlor antibodies; bleed four
  percent cross-reactivity: 18%
Alachlor antibodies; bleed seven
  percent cross-reactivity: 65%

## CCc1cccc(CC)c1NC(=O)CSC
Alachlor antibodies
  reaction (cross-reactivity) with the antibodies, in words: no cross-reactivity

## CCc1cccc(CC)c1N(COC)C(=O)CSCC(=O)O [thioacetic acid conjugate of alachlor]
Alachlor antibodies; [5]
  percent cross-reactivity: 57.0%

## CCc1cccc(CC)c1N(COC)C(=O)CSC
Alachlor antibodies; [5]
  percent cross-reactivity: 188%
Alachlor antibodies
  reaction (cross-reactivity) with the antibodies, in words: strong interaction

## CCc1cccc(CC)c1N [2,6-diethylaniline]
Alachlor antibodies
  reaction (cross-reactivity) with the antibodies, in words: no reaction

## CCc1cccc(CC)c1NC(=O)CSCC(NC(C)=O)C(=O)O (stereo not shown) [secondary amide mercapturate]
Alachlor antibodies
  reaction (cross-reactivity) with the antibodies, in words: significantly reduced or eliminated

## CCc1cccc(CC)c1N(COC)C(=O)CS(=O)(=O)CCO
Alachlor antibodies
  reaction (cross-reactivity) with the antibodies, in words: no cross-reactivity
